Results from patent US9474749B2 (priority 2004, dated 2016).

Assays:
BACE-2 = BACE-2 mRNA expression in HTB-11 cells (RT-PCR)
Procedure: (§1) SH-SY5Y human neuroblastoma cells (ATCC, USA) were cultured in Dulbecco's modified Eagle's medium/Ham's nutrient mixture (DMEM-F12) (Invitrogen, USA), and HTB-11 human neuroblastoma cells (ATCC, USA) were cultured in Minimum Essential Medium Alpha Medium (MEM-α) (Invitrogen, USA). […] All treatments were performed under a sterile hood.
(§2) After the treatment time-period, cells were harvested, and total RNA was extracted using RNeasy RNA Isolation kit (Qiagen) following the manufacturer's procedures. Total RNA yield was determined using a Spectrophotometer RNA/DNA calculator (Pharmacia Biotech). Total RNA concentration was then standardized for semi-quantitative RT-PCR, which was carried out in a Geneamp Thermocycler PCR System 9700 (P.E. Applied Biosystems). […] PCR products and a 100 bp DNA marker were then loaded in a 2% agarose gel stained with ethidium bromide. Gel electrophoresis was performed using a power-supply (E-C Apparatus Corp.) set at 110V with constant amperage for 1.5 hours. Gels were then photographed using a Gel Documentation System (UVP), and bands analyzed using Gel-Pro Analyzer (MediaCybernetics) on a P4 Windows machine.

BACE-1 = BACE-1 mRNA expression in HTB-11 cells (RT-PCR)
Procedure: as §1, §2

[1] = system: Mytilus edulis pedal ganglia; assay: Endogenous morphine levels in excised pedal ganglia incubated in vitro (HPLC, RIA); type: cell-based; details: for morphine per ganglion wet weight / ganglionic morphine levels versus control: in vitro; for morphine per ganglion wet weight: 5-hydroxytryptophan 1 μg/gm tissue, vehicle 2.1±0.44; for effect of enzyme inhibitor on precursor-induced morphine production: quinidine with tyramine, AMPT with tyrosine, concentration dependent; for morphine in ganglia: 10 μg of each compound, control 11.9; for ganglionic morphine levels versus control: 50 and 100 ng, 60 minutes; for ganglionic morphine levels after in vitro incubation: ganglionic wet weight, before: 1.08±0.27 (tyramine), 0.96±0.31 (tyrosine); for share of added precursor converted to morphine: in vitro ganglia incubation; for ganglionic morphine levels after exposure: 10^−6 M (FIG. 20)
[2] = system: Mytilus edulis pedal ganglia; assay: Ganglionic morphine levels after injection into the foot of intact animals; details: for pedal ganglionic morphine levels after injection: one hour after injection into the foot; for morphine levels after injection of inhibitor alone: 10^−4 M via the foot; for ganglionic morphine levels after injection: 10^−5 M in the foot, one hour, controls 1.02±0.24; for decrease in ganglionic morphine levels when the respective enzyme inhibitor was topically applied: AMPT or quinidine 10^−4 M on pedal ganglia after amino acid injection
Procedure: For in vivo precursor injection experiments, the animal's foot was injected with either reticuline or L-DOPA (0.1 and 1 μg/injection, respectively). Chemicals were injected by BD 1 cc syringes with 26 G needles. Each needle was inserted into that base of the foot just above the pedal ganglia.
(§3) For in vivo treatments, the animal's foot (20 animals per treatment) was injected with tyrosine (10^−5 M), tyramine (10^−5 M), or saline. Other animals were exposed to the enzyme inhibitors AMPT or quinidine alone or immediately following the respective foot injection. […] All chemicals were purchased from Sigma (St. Louis, Mo.).

mu3 opiate receptor = molecular target: T1, mu3 opiate receptor (Homo sapiens, UniProt P35372); assay: biochemical; type: binding
T1 construct: An additional 100 excised pedal ganglia and the human monocytes were separately washed and homogenized; host or cells: human monocytes
T1 sequence (P35372 1-314 isoform P35372-14): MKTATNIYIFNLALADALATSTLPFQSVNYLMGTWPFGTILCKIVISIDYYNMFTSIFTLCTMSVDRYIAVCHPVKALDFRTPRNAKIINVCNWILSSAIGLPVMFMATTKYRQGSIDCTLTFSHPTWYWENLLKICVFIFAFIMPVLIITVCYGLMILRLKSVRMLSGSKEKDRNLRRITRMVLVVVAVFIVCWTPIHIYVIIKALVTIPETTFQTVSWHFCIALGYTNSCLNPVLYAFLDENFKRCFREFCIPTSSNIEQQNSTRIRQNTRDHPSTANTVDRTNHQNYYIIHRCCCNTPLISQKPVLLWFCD
Procedure: For the nitric oxide assay, ten pedal ganglia (per determination) dissected from M. edulis were bathed in 1 mL sterile phosphate buffered saline (PBS). […] NO release was monitored with an NO-selective microprobe manufactured by World Precision Instruments (Sarasota, Fla.). The sensor was positioned approximately 100 μm above the respective tissue surface. […] The NO detection system was calibrated daily. The probe was allowed to equilibrate for 10 minutes in the incubation medium free of tissue before being transferred to vials containing the ganglia for another 5 minutes. Manipulation and handling of the ganglia was only performed with glass instruments. Data was acquired using the Apollo-4000 free radical analyzer (World Precision Instruments, Sarasota, Fla.). The experimental values were then transferred to Sigma-Plot and -Stat (Jandel, Calif.) for graphic representation and evaluation.
An additional 100 excised pedal ganglia and the human monocytes were separately washed and homogenized in 50 volumes of 0.32 M sucrose, pH 7.4, at 4° C. using a Brinkmann polytron (30 seconds, setting no. 5). The crude homogenate was centrifuged at 900×g for 10 minutes at 4° C., and the supernatant was reserved on ice. The whitish crude pellet was resuspended by homogenization (15 seconds, setting no. 5) in 30 volumes of 0.32 M sucrose/Tris-HCl buffer, pH 7.4, and centrifuged at 900×g for 10 minutes. The extraction procedure was repeated one more time, and the combined supernatants were centrifuged at 900×g for 10 minutes. The resulting supernatants (S1′) were used immediately. […] The P2 pellet was then re-suspended with a Dounce hand-held homogenizer (10 strokes) in 100 volumes of buffer. […]
Aliquots of membrane suspension (0.2 mL, 0.12 mg of membrane protein) were incubated in triplicate at 22° C. for 40 minutes with the appropriate radiolabeled ligand in the presence of dextrorphan (10 mM) or levorphanol (10 mM) in 10 mM Tris-HCl buffer, pH 7.4, containing 0.1% BSA and 150 mM KCl. […] Protein concentration was determined in membrane suspensions (prepared in the absence of BSA).

pedal ganglia = assay: NO release from excised pedal ganglia (NO-selective microprobe); type: cell-based, Mytilus edulis; details: for NO Peak Level / NO Peak Time: ligand 10^−7 M
Procedure: For the nitric oxide assay, ten pedal ganglia (per determination) dissected from M. edulis were bathed in 1 mL sterile phosphate buffered saline (PBS). […] For the opiate receptor antagonist experiments, ganglia were pretreated with naloxone for 10 minutes prior to reticuline addition. NO release was monitored with an NO-selective microprobe manufactured by World Precision Instruments (Sarasota, Fla.). The sensor was positioned approximately 100 μm above the respective tissue surface. […] The NO detection system was calibrated daily. The probe was allowed to equilibrate for 10 minutes in the incubation medium free of tissue before being transferred to vials containing the ganglia for another 5 minutes. Manipulation and handling of the ganglia was only performed with glass instruments. Data was acquired using the Apollo-4000 free radical analyzer (World Precision Instruments, Sarasota, Fla.). The experimental values were then transferred to Sigma-Plot and -Stat (Jandel, Calif.) for graphic representation and evaluation.

[3] = system: human white blood cells / PMNs; assay: Morphine production by human WBC and PMNs (HPLC, RIA); type: cell-based; details: for WBC morphine concentrations versus untreated cells: P<0.001; for Morphine levels in media after the cells were removed: PMNs 3×10^6 cells, THP 100 μg, reticuline 50 μg, L-DOPA 100 μg, L-tyrosine 100 μg; for morphine concentrations in WBC: one-hour treatment, control 12.33±5.64
PMNs = assay: PMN activation level by computer-assisted image analysis (form factor); details: for level of PMN activation: IL-1β 2 ng/mL one hour, L-DOPA 10^−6 M, untreated 7.3±2.1%
Procedure: The morphological measurements of PMNs were based on cell area and perimeter determinations by the use of image analysis software (Compix, Mars, Pa.). […] The observational area used for measurement determinations and frame-grabbing was 0.4 μm in diameter.
After this incubation, the PMNs were evaluated for their activity level via computer-assisted image analysis.

[4] = system: Mytilus edulis ganglia and hemolymph; assay: Dopamine levels in ganglia and hemolymph (HPLC UV)
Procedure: Mytilus edulis collected from the local waters of Long Island Sound were maintained as described herein. […] The pedal ganglia were incubated with and without tyrosine or tyramine in the presence of quinidine, a CYP2D6 inhibitor, and alpha methyl para tyrosine (AMPT), which inhibits tyrosine hydroxylase.
as §3
After ganglionic dissection, ganglia were pooled into one eppendorf tube, 1 ml of 1 N HCl was added, and the tissue was sonicated by sonic dismemberator (Fisher scientific, USA). Homogenized tissue was then transferred to a 15 mL polypropylene centrifuge tube (Fisher Scientific, PA, USA). 5 mL of chloroform/isopropanol (9:1, v/v) was added, and the contents of the tube vigorously vortexed for 5 minutes at room temperature. […] Supernatant (water soluble layer) was dispatched into pre-siliconized 1.5 tubes (Midwest Scientific) and kept at 4° C. for immediate use for HPLC determination or stored at −80° C. for further analysis.

[5] = system: SK-N-SH neuroblastoma cell line; assay: NO release from SK-N-SH neuroblastoma cells
Procedure: The human SK-N-SH neuroblastoma cell line (ATCC #HTB-11) was used as a cellular model. Cells were propagated in Minimum Essential Medium alpha (MEMα) with 10% fetal bovine serum (FBS), 2% penicillin/streptomycin, 1.5 g/L NaHCO3, and 1.0 mM pyruvic acid. A 5% CO2 incubator (NAPCO) at 37° C. was used for maintenance of temperature and pH. […] When needed, cells were plated in 6- or 12-well plates using a hemocytometer (2×10^5 cells/well in 6-well plates or 1×10^5 cells/well in 12-well plates). Experimental manipulations were performed under sterile conditions under a lamina airflow hood after cells had adhered to the bottom of the plates.

[6] = system: SK-N-SH neuroblastoma cell line; type: cell-based, human
Procedure: Cell viability was determined via Trypan blue exclusion. An inverted light microscope (Nikon) with a phase-contrast filter was used to observe the cells. Pictures of the cells were taken via a digital camera (Optronix) attached to the microscope ocular. Images were uploaded onto ImagePro Plus Software (Applied Biosystems), where cell viability was calculated based on both the number of cells covering the field and the cells that present as dead from the stain. In addition, ImagePro Plus was used for determining cellular morphology. The area and perimeter were found and used in the formula (4π*Area)/(Perimeter)^2, resulting in a value between 0 (a straight line) and 1 (a perfect circle).

[7] = system: SK-N-SH neuroblastoma cell line; assay: Cellular morphology (Form Factor) of neuroblastoma cells; type: cell-based, human; details: 10 μM
Mytilus animals = assay: TNF-α-induced death of animals; details: 10 U/mL TNF-α by injection, after 4 days
Procedure: 100 healthy Mytilus animals were treated with 10 U/mL of TNF-α by injection.

[8] = 1 μM morphine, 10 μM pre-treatment for twenty minutes

`CC(=O)NC(C(=O)O)C(C)(C)SN=O` (racemic) [SNAP, S-Nitroso-N-acetyl-D, L-penicillamine] was tested, and the “BACE-2 expression” value (BACE-2; SNAP 1, 5, 10 μM, 4- and 24-hour timepoints) was “up regulated in a concentration dependent manner BACE-2 expression” and the “BACE-1 expression” value (BACE-1; SNAP 1, 5, 10 μM, 4- and 24-hour exposures) was “reduced BACE-1 expression in a concentration dependent manner”.

In the case of `N[C@@H](Cc1c[nH]c2ccc(O)cc12)C(=O)O` [5-hydroxytryptophan], the “morphine per ganglion wet weight” value [1] is reported as 2.1±0.41 ng morphine per ganglion and the “pedal ganglionic morphine levels after injection” value [2] is reported as “failed to increase ganglionic morphine levels”.

`CC(N)(Cc1ccc(O)cc1)C(=O)O` (stereo not drawn) [AMPT, alpha-methyl-para-tyrosine] was tested, and the “effect of enzyme inhibitor on precursor-induced morphine production” value [1] was “less tyrosine-induced morphine production” and the “morphine levels after injection of inhibitor alone” value [2] was “did not exhibit any change in morphine levels”.

With `CN1CC[C@]23c4c5ccc(O)c4O[C@H]2[C@@H](O)CC[C@H]3[C@H]1C5` [Dihydromorphine, dihydromorphine] the IC50 (mu3 opiate receptor) was 19.1 ± 3.3 nM, the “NO Peak Level” value (pedal ganglia) was 23.2 ± 3.7 nM and the “NO Peak Time” value (pedal ganglia) was 0.9 ± 0.3 min.

With `N[C@@H](Cc1ccc(O)c(O)c1)C(=O)O` [L-DOPA] the morphine in ganglia [1] was 9.31 ng/mL, the “ganglionic morphine levels versus control” value [1] was “significantly higher” and the “morphine per ganglion wet weight” value [1] was 3.6±0.45 ng morphine per ganglion. For the same molecule, the “WBC morphine concentrations versus untreated cells” value [3] was “significantly increased WBC morphine concentrations”, the “Morphine levels in media after the cells were removed” value (shortened to “Morphine levels in media”) [3] was 1.234 ± 0.26 and the “morphine concentrations in WBC” value [3] was 136.5±12.43 pg/million cells. For the same molecule, the “pedal ganglionic morphine levels after injection” value [2] was “significantly increased pedal ganglionic morphine levels”, the “level of PMN activation” value (PMNs) was 3.7±0.4% and the “percent of activated cells in mixed PMN population” value (PMNs; L-DOPA treated and IL-1β treated PMNs mixed 1:1) was 12.5±3.7%.

In the case of `N[C@@H](Cc1ccc(O)cc1)C(=O)O` [L-tyrosine], the “ganglionic morphine levels after in vitro incubation” value [1] is reported as 2.39 ± 0.64 ng/g, the “share of added precursor converted to morphine” value (“share” below) [1] is reported as “About 7%” and the “Morphine levels in media” value [3] is reported as 2.223 ± 0.38. The “ganglionic morphine levels after injection” value [2] was 2.46±0.22 ng/g wet weight and the “decrease in ganglionic morphine levels when the respective enzyme inhibitor was topically applied” value [2] was 30%.

In the case of `COC1=C[C@]23CCN(C)[C@H](Cc4ccc(OC)c(O)c42)C3=CC1=O` [Salutaridine, salutaridine], the IC50 (mu3 opiate receptor) is reported as greater than 1000 nM, the “NO Peak Level” value (pedal ganglia) is reported as 18.5 ± 3.3 nM and the “NO Peak Time” value (pedal ganglia) is reported as 8.9 ± 1.3 min.

With `Oc1ccc(CC2NCCc3cc(O)c(O)cc32)cc1O` (stereo not drawn) [THP, norlaudanosoline] the “ganglionic morphine levels after exposure” value [1] was “significantly enhanced morphine levels”, the “ganglionic morphine levels versus control” value [1] was “significantly higher” and the “share” value [1] was “About 20%”. The “WBC morphine concentrations versus untreated cells” value [3] was “significantly increased WBC morphine concentrations”, the “Morphine levels in media” value [3] was 2.028 ± 0.42 and the “morphine concentrations in WBC” value [3] was 90.25±10.42 pg/million cells.

In the case of `NCCc1ccc(O)cc1` [Tyramine, tyramine], the “ganglionic morphine levels after in vitro incubation” value [1] is reported as 2.51 ± 0.36 ng/g, the “share” value [1] is reported as “About 7%” and the “WBC morphine concentrations versus untreated cells” value [3] is reported as “significantly increased WBC morphine concentrations”. For the same molecule, the “ganglionic morphine levels after injection” value [2] was 3.28±0.45 ng/g wet weight, the “decrease in ganglionic morphine levels when the respective enzyme inhibitor was topically applied” value [2] was 25% and the “ganglionic DA level after tyramine injection” value ([4]; from 4.98±0.27) was 9.17±1.21 μg/g wet weight. The “hemolymph DA level after tyramine” value ([4]; from 10.13±1.24) was 16.47 ± 1.28 µg/mL, the “hemolymph DA (FIG. 19 legend)” value ([4]; tyramine 100 μg/mL incubation, PBS 10.13±0.34) was 16.47±2.28 μg of DA/mL and the “ganglia DA (FIG. 19 legend)” value ([4]; tyramine injection 100 μg/animal, PBS 4.78±0.27) was 9.17±1.21 μg of DA/g.

For `CCc1cccc2cc(C(O)CNC(C)(C)C)oc12` (stereo not drawn) [bufuralol], the “effect on precursor-induced morphine synthesis in PMNs” value [3] was “significantly diminished synthesis of morphine”.

With `COc1ccc2c3c1O[C@H]1[C@@H](O)C=C[C@H]4[C@@H](C2)N(C)CC[C@@]341` [codeine] the “ganglionic morphine levels after exposure” value [1] was “significantly enhanced morphine levels”.

In the case of `NCCc1ccc(O)c(O)c1` [dopamine], the morphine in ganglia [1] is reported as 8.82 ng/mL and the “ganglionic morphine levels after exposure” value [1] is reported as “significantly enhanced morphine levels”.

`CN1CC[C@]23c4c5ccc(O)c4O[C@H]2[C@@H](O)C=C[C@H]3[C@H]1C5.O=S(=O)(O)O` [morphine sulfate] was tested, and the “peak NO release” value ([5]; morphine sulfate 5 μM, baseline 2 nM NO) was 22.3 nM and the confluency [6] was “about 78%”.

For `C=CCN1CC[C@]23c4c5ccc(O)c4O[C@H]2C(=O)CC[C@@]3(O)[C@H]1C5` [naloxone], the “NO release induced by 10^−6 M morphine in presence of blocker” value ([5]; naloxone 10^−6 M, L-NAME 10^−4 M) was 3.2 nM NO, the “effect on morphine neuroprotection, Form Factor” value [7] was “reversal in morphine neuroprotection” and the “level of activation in mixed PMN population, IL-1β-treated cells co-treated with naloxone” value (PMNs; mixed with L-DOPA-treated PMNs) was 35.2±6.3%. The “effect of pre-treatment on morphine's effect on BACE-2 expression” value (BACE-2; [8]) was “blocked by naloxone”, the “effect of pre-treatment on morphine's effect on BACE-1 expression” value (BACE-1; [8]) was “blocked by naloxone” and the “effect of naloxone pre-treatment on reticuline-stimulated NO release” value (pedal ganglia; naloxone 10^−6 M, reticuline 10^−7 M) was “blocking the reticuline (10^−7 M) stimulated release of NO”.

With `C=C[C@H]1C[N@@]2CC[C@H]1C[C@@H]2[C@@H](O)c1ccnc2ccc(OC)cc12` [quinidine] the “effect of quinidine on morphine increase by THP, reticuline, DA, or codeine” value ([1]; quinidine 10^−6 M) was “significantly blocked by quinidine exposure”, the “effect of enzyme inhibitor on precursor-induced morphine production” value [1] was “less tyramine-induced morphine production” and the “effect on precursor-induced morphine synthesis in PMNs” value [3] was “blocked morphine synthesis”. For the same molecule, the “morphine levels after injection of inhibitor alone” value [2] was “did not exhibit any change in morphine levels”, the “ganglia DA, tyramine and quinidine injections (FIG. 19 legend)” value ([4]; 100 μg/animal) was 2.57±0.32 μg of DA/g and the “effect of quinidine on tyramine-induced DA level increases” value ([4]; ganglionic and hemolymph) was “blocked by quinidine exposure”. The “hemolymph DA, tyramine and quinidine exposure (FIG. 19 legend)” value ([4]; tyramine 100 μg/mL, quinidine 10 μg/mL) was 10.24 μg of DA/mL.

With IL-1β: cytokine used to activate PMNs the “level of PMN activation” value (PMNs) was 43.4±5.7%.

For TNF-α, the animals that died (Mytilus animals) was “about 20%”.

B1: IFNγ: interferon used to simulate an immune response (protein, UniProt P01579 24-161, looked up)
Interferon gamma: QDPYVKEAENLKKYFNAGHSDVADNGTLFLGILKNWKEESDRKIMQSQIVSFYFKLFKNFKDDQSIQKSVETIKEDMNVKFFNSNKKKRDDFEKLTNYSVTDLNVQRKAIHELIQVMAELSPAAKTGKRKRSQMLFRG
In the case of B1, the “cellular death” value ([6]; IFNγ) is reported as “did not cause significant cellular death”.
